Patent US20050095281A1, “Liposomal formulations and methods of use” (OPTIME Therapeutics, Inc., priority 2003, published 2005)

What was measured:
[1] = tested on: Lactobacillus; conditions: previously shown; cited from earlier work
[2] = tested on: human cervical epithelium; assay: Histological evaluation of excised human cervical tissue ex vivo (Franz diffusion cell); conditions: 2% polysorbate 80 (data not shown)

| Molecule | toxicity of preservatives to Lactobacillus [1] | histological changes in human cervical epithelium [2] |
| --- | --- | --- |
| COC(=O)c1ccc(O)cc1 [methylparaben] | nontoxic |  |
| CCCOC(=O)c1ccc(O)cc1 [propylparaben] | nontoxic |  |
| polysorbate 80 |  | Severe shedding of the epithelial layers |
